Measurements: ChEMBL document CHEMBL5338706, “Discovery of a potent and selective proteolysis targeting chimera (PROTAC) degrader of NSD3 histone methyltransferase” (Eur J Med Chem, 2022)
Activity calls are given as the source filed them. The rule behind the calls is not given here.

Tests used:
[1] = Downregulation of NSD3 level in human NCI-H520 cells at 5 uM by measuring fold change by Western blot analysis relative to control; type: functional
NCI-H1703 [2] = experiment: Induction of apoptosis in human NCI-H1703 cells assessed as necrotic cells at 10 uM measured after 72 hrs by PI/Annexin-V staining based flow cytometry analysis (reference value: 2.80% ); type: functional
NCI-H1703 [3] = experiment: Induction of apoptosis in human NCI-H1703 cells assessed as decrease in Bcl-XL protein expression at 5 to 10 uM by Western blot analysis; type: functional, cell-based; conditions: dose 5-10 µM
[4] = Downregulation of c-Myc level in human NCI-H1703 cells at 3 uM by measuring fold change by Western blot analysis relative to control; type: functional
NCI-H520 [5] = experiment: Induction of apoptosis in human NCI-H520 cells assessed as decrease in MCL-1 protein expression at […] by measuring fold change by Western blot analysis relative to control; type: functional; conditions: dose 7.5 µM
[6] = Inhibition of clone formation in human NCI-H1703 cells at 3 uM incubated for 10 days with media replenishment for every 5 days by crystal violet staining based analysis relative to control; type: functional; conditions: NCI-H1703, 240 h, time 10 day
NCI-H520 [7] = experiment: Induction of apoptosis in human NCI-H520 cells assessed as decrease in MCL-1 protein expression at 5 to 10 uM by Western blot analysis; type: functional, cell-based; conditions: dose 5-10 µM

Cc1cc(CNCCCCCCCCCCC(=O)N[C@H](C(=O)N2C[C@H](O)C[C@H]2C(=O)N[C@@H](C)c2ccc(-c3scnc3C)cc2)C(C)(C)C)cc(C)c1-c1ncn(C)c1-c1ccnc2cc(F)ccc12
fold change (FC) [1]: 0.7 | Activity (NCI-H1703 [2]): 16.6% | Activity (NCI-H1703 [3]): Active | fold change (FC) [4]: 0.86 | fold change (FC) (NCI-H520 [5]): 0.61 | inhibition at 3 µM [6]: 100% | Activity (NCI-H520 [7]): Active
